Measured values reported in US4352944A, “Treatment of cashew nut shell liquid” (Minnesota Mining and Manufacturing Company, priority 1980, dated 1982).
“Also recorded” adds a separate entry of the source.

How the values were obtained:
[1] = Runs with different amines on distilled CNSL, GC of distillate (Example 2); conditions: 0.2 mole amine, seven days, 0.5 mm Hg, fraction 180-185° C.
Method: A series of runs was performed using different amines. 0.2 mole of the amines indicated in the table was mixed with 300 g of distilled CNSL (cardanol:cardol 90:10, 1.0 mole). When the mixture was stirred a mild exothermic reaction was noted. The mixture was allowed to stand for seven days at room temperature then distilled at 0.5 mm Hg. The major fraction (boiling at 180° to 185° C.) was analyzed by gas chromatography for cardanol and cardol.

[2] = Effectiveness of bases in cardol removal / cardol-cardanol separation (Example 7); conditions: for effect on separation / suitability, in words: general statement
[3] = determined in aqueous solution; literature values; cited from earlier work
[4] = Distillation of Technical CNSL treated with amines (Example 1, Table 1); conditions: for % composition of distillate: 2-me-Cardol / % composition of distillate: Cardanol / % composition of distillate: Cardol / % composition of residue: 2-me-Cardol / % composition of residue: Cardanol / % composition of residue: Cardol: short still head
Text: (§1) Technical CNSL of Brazilian origin and distilled CNSL obtained from it were used in the present work. Material of this origin tends to be richer in cardol. The average molecular weight was taken to be 306 based upon cardanol (average dienoid, m.w. 300) and cardol (m.w. 314, average trienoid). Three amines were used, namely diethylenetriamine (V), N-(2-aminoethyl)ethanolamine (VI) and diethanolamine (VII), which are structurally related. [drawing 3] Different molar proportions of the triamine (DETA) (V) were used with distilled CNSL (1.0 mole), from 0.25, 0.50 to 1.0. In the case of Technical CNSL (having more cardol initially present) the molar proportions of DETA were 1.0, 1.6 and 2.0 per mole of the CNSL. The mixtures in all cases were kept for 7 days and then distilled under high vacuum. After recovery of the amine, one fraction of cardanol which was considerably purified was collected. […] The distillation residue was still quite mobile and from this, cardol and the polymer from the original CNSL could be recovered.
In a typical experiment, technical CNSL (9.18 g) and DETA (3.09 g: 1 mole) were interacted at ambient temperature and the mixture after 7 days distilled through a short Vigreux type Claisen flask.
(§2) In the distillations reported in the following Tables 1 and 2 a Vigreux column was not used but merely a short still head section. All products were examined by gas-liquid chromatography (hereinafter GLC) on a gas chromatographic apparatus equipped with an integrator upon a 3% SE30 type column after trimethylsilylation with bis-(trimethylsilyl)acetamide in a pyridine solution. In the calculation of the results, response fractions have not been used. The peak areas as printed out by integration have been normalized (expressed in % form).
(9.18 g of Technical CNSL was used)

[5] = Distillation of distilled CNSL treated with amines (Example 1, Table 2)
Text: as §1, §2
(9.18 g distilled CNSL was used with different

[6] = Effect of length of time of DETA treatment (Example 3)
Text: as §1, §2
Technical CNSL was treated with DETA (1 mole proportion) and the mixture distilled as in Example 1 after it had been allowed to stand for 24 hours instead of 7 days. […] Probably an overnight procedure might well suffice.

C1CCNCC1 [Piperidine, piperidine]
% composition of distillate: Cardanol [1]: 96.1% | % composition of distillate: Cardol [1]: 2.2% | Effectiveness (in cardol removal) [2]: excellent | Kb [3]: 1.7 × 10^-3

CCCCN [n-butylamine]
% composition of distillate: Cardanol [1]: 94.5% | % composition of distillate: Cardol [1]: 5.5% | Effectiveness (in cardol removal) [2]: not effective; also recorded: ineffective | effect on separation / suitability, in words [2]: not suitable | Kb [3]: 3.9 × 10^-4

CCN(CC)CC [triethylamine]
Effectiveness (in cardol removal) [2]: excellent | Kb [3]: 4.5 × 10^-4

NCCNCCN [DETA, diethylenetriamine]
cardol after distillation ([4]; 1 molar proportion, no Vigreux column, from ca 20%): ~6% | impurity in distilled cardanol by TLC ([4]; 1 mole DETA, 7 days, short Vigreux type flask): no cardanol | cardol after distillation, in words ([4]; Vigreux type column): almost zero | % composition of distillate: 2-me-Cardol ([4]; amine 1 M, 7 days): 1.9% | % composition of distillate: Cardanol ([4]; amine 1 M, 7 days): 93.0% | % composition of distillate: Cardol ([4]; amine 1 M, 7 days): 5.1% | % composition of residue: 2-me-Cardol ([4]; amine 1 M, 7 days): 3.2% | % composition of residue: Cardanol ([4]; amine 1 M, 7 days): 85.6% | % composition of residue: Cardol ([4]; amine 1 M, 7 days): 11.2% | % composition of distillate: 2-me-Cardol ([4]; amine 1.6 M, 7 days): 2.1% | % composition of distillate: Cardanol ([4]; amine 1.6 M, 7 days): 91.1% | % composition of distillate: Cardol ([4]; amine 1.6 M, 7 days): 6.8% | % composition of residue: 2-me-Cardol ([4]; amine 1.6 M, 7 days): 4.24% | % composition of residue: Cardanol ([4]; amine 1.6 M, 7 days): 75.1% | % composition of residue: Cardol ([4]; amine 1.6 M, 7 days): 21.7% | % composition of distillate: 2-me-Cardol ([4]; amine 2 M, 7 days): 1.1% | % composition of distillate: Cardanol ([4]; amine 2 M, 7 days): 93.1% | % composition of distillate: Cardol ([4]; amine 2 M, 7 days): 5.8% | % composition of residue: 2-me-Cardol ([4]; amine 2 M, 7 days): 7.6% | % composition of residue: Cardanol ([4]; amine 2 M, 7 days): 63.2% | % composition of residue: Cardol ([4]; amine 2 M, 7 days): 29.1% | % composition of distillate: 2-me-Cardol ([5]; amine 0.25 M): 0.7% | % composition of distillate: Cardanol ([5]; amine 0.25 M): 95.4% | % composition of distillate: Cardol ([5]; amine 0.25 M): 3.9% | % composition of distillate: 2-me-Cardol ([5]; amine 0.50 M): 0.4% | % composition of distillate: Cardanol ([5]; amine 0.50 M): 97.7% | % composition of distillate: Cardol ([5]; amine 0.50 M): 2.0% | % composition of distillate: 2-me-Cardol ([5]; amine 1.0 M): 2.0% | % composition of distillate: Cardanol ([5]; amine 1.0 M): 93.8% | % composition of distillate: Cardol ([5]; amine 1.0 M): 4.2% | % composition of distillate: Cardanol [1]: 98.9% | % composition of distillate: Cardol [1]: 0.0% | effectiveness of 24 hour treatment ([6]; 24 h, 1 mole proportion): quite effective | % Composition of distillate: 2-Methyl-Cardol ([6]; 24 h with DETA (1 M)): 1.6% | % composition of distillate: Cardanol ([6]; 24 h with DETA (1 M)): 91.7% | % composition of distillate: Cardol ([6]; 24 h with DETA (1 M)): 6.6% | % Composition of distillate: 2-Methyl-Cardol ([6]; 7 days with DETA (1 M)): 1.8% | % composition of distillate: Cardanol ([6]; 7 days with DETA (1 M)): 92.0% | % composition of distillate: Cardol ([6]; 7 days with DETA (1 M)): 6.2% | Effectiveness (in cardol removal) [2]: excellent | Kb [3]: 4.5 × 10^-5

NCCNCCO [N-(2-Aminoethyl)ethanolamine, N-(2-aminoethyl)ethanolamine]
% composition of distillate: 2-me-Cardol ([4]; amine 1.5 M, 7 days): 2.3% | % composition of distillate: Cardanol ([4]; amine 1.5 M, 7 days): 92.4% | % composition of distillate: Cardol ([4]; amine 1.5 M, 7 days): 5.3% | % composition of residue: 2-me-Cardol ([4]; amine 1.5 M, 7 days): 4.7% | % composition of residue: Cardanol ([4]; amine 1.5 M, 7 days): 75.5% | % composition of residue: Cardol ([4]; amine 1.5 M, 7 days): 19.8% | Effectiveness (in cardol removal) [2]: excellent | Kb [3]: 6.6 × 10^-5

OCCNCCO [Diethanolamine, diethanolamine]
% composition of distillate: 2-me-Cardol ([4]; amine 1.5 M, 7 days): 2.3% | % composition of distillate: Cardanol ([4]; amine 1.5 M, 7 days): 88.0% | % composition of distillate: Cardol ([4]; amine 1.5 M, 7 days): 9.7% | % composition of residue: 2-me-Cardol ([4]; amine 1.5 M, 7 days): 10.4% | % composition of residue: Cardanol ([4]; amine 1.5 M, 7 days): 55.7% | % composition of residue: Cardol ([4]; amine 1.5 M, 7 days): 33.9% | Effectiveness (in cardol removal) [2]: not effective; also recorded: ineffective | effect on separation / suitability, in words [2]: not effective

N [ammonium hydroxide]
effect on separation / suitability, in words [2]: not suitable
